Source: article PMC7339578, “Multiple circulating alkaloids and saponins from intravenous Kang-Ai injection inhibit human cytochrome P450 and UDP-glucuronosyltransferase isozymes: potential drug–drug interactions” (Chinese Medicine, 2020)
Read-outs that look alike come from different tables or passages of the source.

Columns and labels:
[1] = tested on: UGT2B7; parameters: method as in PMID 27916843; conditions: read-out: Ki towards UGT2B7; cited from earlier work
[2] = tested on: UGT1A8; conditions: cited from earlier work
[3] = Plasma pharmacokinetics in rats after a 30-min intravenous infusion of Kang-Ai injection; assay type: in vivo, Sprague–Dawley rats
In short: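 Fasted male Sprague–Dawley rats (250 ± 20 g) got a single 30-min tail-vein infusion of Kang-Ai injection at 6 mL/kg. Jugular blood was sampled from 5 min to 12 h for plasma. Parameters came from non-compartmental analysis (trapezoidal AUC), n = 3.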

[4] = Protein binding assay (equilibrium dialysis); assay type: in vitro ADME, rat
Description: Binding of circulating alkaloids and saponins to rat plasma was measured by equilibrium dialysis using Spectra/Por 2 dialysis membranes (molecular weight cutoff, 12–14 kDa; Rancho Dominguez, CA, USA) as described. After equilibrating for 24 h at 55 rpm and 37 °C, the dialysate and the plasma were sampled for analysis. […] The concentrations of tested matrine, oxysophocarpine and oxymatrine were 2 μmol/L, while those of astragaloside IV, III, and ginsenosides Rh1, Rg2, Rg1, Rf, Re, Rd, Rc, Rb1, Rb2, notoginsenosides R1, R2, were 4 μmol/L. The unbound fraction (fu-plasma) in rat plasma was calculated as follow: fu-plasma = Cd/Cp × 100%, where the Cd and Cp values were the concentrations of each analyte in the dialysate sample and in the post-dialysis plasma sample, respectively.

[5] = Biliary (hepatobiliary) excretion in rats after a 30-min infusion of Kang-Ai injection; assay type: in vivo, Sprague–Dawley rats; conditions: rat bile 0–12 h; Kang-Ai injection 6 mL/kg iv
In short: (§1)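 Urine collected in metabolic cages at 0–4, 4–8, 8–12 h and bile at 0–3, 3–6, 6–9, 9–12 h after infusion start, weighed and frozen at −80 °C. Non-compartmental analysis; CLR and CLB as cumulative urinary or biliary amount divided by plasma AUC0-∞, fe-U and fe-B as cumulative amount/dose; mean ± SD (n = 3).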

[6] = Stability tests of analytes in rat plasma QC samples; assay type: in vitro ADME; conditions: rat plasma
Description: […] The dilution integrity was investigated by analyzing six replicate samples with each analyte, and each analyte were diluted 10-fold with blank rat matrix. Furthermore, the diluted samples were analyzed using freshly prepared calibration curve to calculate RE and RSD, which should be no more than ± 15% as criterion.

[7] = Urinary (renal) excretion in rats after a 30-min infusion of Kang-Ai injection; assay type: in vivo, Sprague–Dawley rats; conditions: Kang-Ai injection 6 mL/kg iv; for fe-U,0–12h (fraction of dose excreted into urine): rat urine 0–12 h; for CL renal: male, Sprague-Dawley, rat, read-out: CLR (renal excretory clearance) (converted)
In short: as §1

[8] = male, Sprague-Dawley, rat, in vivo, iv

SMILES	fe-B,0–12h (fraction of dose excreted into bile) [5] [%]	At -80 °C for 48 h, Mean±SD ([6]; nominal conc. 20 nM) [nM]	At -80 °C for 48 h, RE ([6]; nominal conc. 20 nM) [%]	Extracted samples at 8 °C for 18 h, Mean±SD ([6]; nominal conc. 20 nM) [nM]	Extracted samples at 8 °C for 18 h, RE ([6]; nominal conc. 20 nM) [%]	Short-term stability at room temperature for 6 h, Mean±SD ([6]; nominal conc. 20 nM) [nM]	Short-term stability at room temperature for 6 h, RE ([6]; nominal conc. 20 nM) [%]	Three freeze-thaw cycles (-80 °C ↔ 23 °C), Mean±SD ([6]; nominal conc. 20 nM) [nM]	Three freeze-thaw cycles (-80 °C ↔ 23 °C), RE ([6]; nominal conc. 20 nM) [%]	At -80 °C for 48 h, Mean±SD ([6]; nominal conc. 100 nM) [nM]	At -80 °C for 48 h, RE ([6]; nominal conc. 100 nM) [%]	Extracted samples at 8 °C for 18 h, Mean±SD ([6]; nominal conc. 100 nM) [nM]	Extracted samples at 8 °C for 18 h, RE ([6]; nominal conc. 100 nM) [%]	Short-term stability at room temperature for 6 h, Mean±SD ([6]; nominal conc. 100 nM) [nM]	Short-term stability at room temperature for 6 h, RE ([6]; nominal conc. 100 nM) [%]	Three freeze-thaw cycles (-80 °C ↔ 23 °C), Mean±SD ([6]; nominal conc. 100 nM) [nM]	Three freeze-thaw cycles (-80 °C ↔ 23 °C), RE ([6]; nominal conc. 100 nM) [%]	At -80 °C for 48 h, Mean±SD ([6]; nominal conc. 400 nM) [nM]	At -80 °C for 48 h, RE ([6]; nominal conc. 400 nM) [%]	Extracted samples at 8 °C for 18 h, Mean±SD ([6]; nominal conc. 400 nM) [nM]	also measured
CC(C)(O)[C@@H]1CC[C@](C)([C@H]2[C@@H](O)C[C@@]3(C)[C@@H]4C[C@H](O)[C@H]5C(C)(C)[C@@H](O)CC[C@@]56C[C@@]46CC[C@]23C)O1 [cycloastragenol]	–	–	–	–	–	–	–	–	–	–	–	–	–	–	–	–	–	–	–	–	Ki [1]: 21 µM; Ki [2]: 0.034 µM
CC(C)=CCC[C@](C)(O[C@@H]1O[C@H](CO)[C@@H](O)[C@H](O)[C@H]1O)[C@H]1CC[C@]2(C)[C@@H]1[C@H](O)C[C@@H]1[C@@]3(C)CC[C@H](O)C(C)(C)[C@@H]3[C@@H](O[C@@H]3O[C@H](CO)[C@@H](O)[C@H](O)[C@H]3O[C@@H]3OC[C@@H](O)[C@H](O)[C@H]3O)C[C@]12C [Compound C8, Notoginsenoside R1]	12.00 ± 1.57	20.74 ± 0.96	8.27	19.67 ± 2.39	-11.85	17.74 ± 0.16	-12.08	21.51 ± 1.68	12.79	98.21 ± 9.98	9.58	97.66 ± 12.82	12.46	92.24 ± 4.21	-10.97	97.29 ± 6.47	-10.11	413.01 ± 31.69	11.76	402.54 ± 33.33	t1/2 ([3]; rat plasma, 30-min iv infusion of Kang-Ai injection 6 mL/kg): 45 ± 9.6 min; Cmax ([3]; rat plasma, 30-min iv infusion of Kang-Ai injection 6 mL/kg, read-out: Cmax): 121 ± 21.1 nM; fu-plasma (unbound fraction) ([4]; rat plasma, equilibrium dialysis 24 h, 37 °C, 2 μmol/L alkaloids, 4 μmol/L saponins): 90.36 ± 4.22%; Extracted samples at 8 °C for 18 h, RE ([6]; nominal conc. 400 nM): 9.82%; Short-term stability at room temperature for 6 h, Mean±SD ([6]; nominal conc. 400 nM): 357.29 ± 9.94 nM; Short-term stability at room temperature for 6 h, RE ([6]; nominal conc. 400 nM): -13.09%; Three freeze-thaw cycles (-80 °C ↔ 23 °C), Mean±SD ([6]; nominal conc. 400 nM): 379.04 ± 38.85 nM; Three freeze-thaw cycles (-80 °C ↔ 23 °C), RE ([6]; nominal conc. 400 nM): -14.53%; fe-U,0–12h (fraction of dose excreted into urine) [7]: 72.12 ± 13.01%
CC(C)=CCC[C@](C)(O)[C@H]1CC[C@]2(C)[C@@H]1[C@H](O)C[C@@H]1[C@@]3(C)CC[C@H](O)C(C)(C)[C@@H]3[C@@H](O[C@@H]3O[C@H](CO)[C@@H](O)[C@H](O)[C@H]3O[C@@H]3O[C@@H](C)[C@H](O)[C@@H](O)[C@H]3O)C[C@]12C [Compound C5, Ginsenoside Rg2]	20.76 ± 3.37	19.84 ± 1.04	-6.64	21.07 ± 0.87	8.32	19.68 ± 2.51	12.85	21.26 ± 1.22	11.13	96.95 ± 8.62	-8.82	98.05 ± 6.29	-8.46	87.52 ± 0.79	-12.97	104.41 ± 11.32	12.73	410.70 ± 32.70	8.22	404.47 ± 42.95	Cmax [3, 8]: 231 ± 17.4 nM; clearance [3, 8]: 2.63 mL/min; half-life [3, 8]: 586 ± 825 min; AUC(0-t) ([3]; male, Sprague-Dawley, rat, in vivo, iv, AUC0–12h): > 0.1 µM·h; fraction unbound at 24 h ([4]; rat, plasma): 0.265 ± 0.0328; Extracted samples at 8 °C for 18 h, RE ([6]; nominal conc. 400 nM): -10.83%; Short-term stability at room temperature for 6 h, Mean±SD ([6]; nominal conc. 400 nM): 361.60 ± 11.46 nM; Short-term stability at room temperature for 6 h, RE ([6]; nominal conc. 400 nM): -11.77%; Three freeze-thaw cycles (-80 °C ↔ 23 °C), Mean±SD ([6]; nominal conc. 400 nM): 374.05 ± 38.03 nM; Three freeze-thaw cycles (-80 °C ↔ 23 °C), RE ([6]; nominal conc. 400 nM): -12.71%; CL renal ([7]; urine and plasma): 0.0552 mL/min; fe-U,0–12h (fraction of dose excreted into urine) [7]: 2.23 ± 0.61%
CC(C)=CCC[C@](C)(O)[C@H]1CC[C@]2(C)[C@@H]1[C@H](O)C[C@@H]1[C@@]3(C)CC[C@H](O)C(C)(C)[C@@H]3[C@@H](O[C@@H]3O[C@H](CO)[C@@H](O)[C@H](O)[C@H]3O)C[C@]12C [Compound C1, Ginsenoside Rh1]	9.71 ± 0.98	22.38 ± 0.33	13.76	20.79 ± 2.88	-12.72	20.81 ± 2.57	13.31	20.14 ± 2.50	-13.10	88.26 ± 1.17	-13.03	100.20 ± 11.08	12.81	92.25 ± 8.56	-13.70	99.91 ± 9.81	-10.86	379.88 ± 25.01	-9.26	424.42 ± 36.39	Cmax ([3]; male, Sprague-Dawley, in vivo, rat plasma, 30-min iv infusion of Kang-Ai injection 6 mL/kg, read-out: Cmax): 140 ± 20.4 nM; half-life ([3]; male, Sprague-Dawley, in vivo, rat plasma, 30-min iv infusion of Kang-Ai injection 6 mL/kg, read-out: t1/2 (converted)): 26.4 ± 23.4 min; clearance ([3]; male, Sprague-Dawley, in vivo, rat, 30-min iv infusion of Kang-Ai injection 6 mL/kg, Table 1 unit, read-out: CLtot, p (converted)): 3.31 mL/min; Vd ([3]; male, Sprague-Dawley, in vivo, rat, 30-min iv infusion of Kang-Ai injection 6 mL/kg, Table 1 unit, read-out: VSS): 0.0936 ± 0.0456 L; AUC(0-t) ([3]; male, Sprague-Dawley, rat, in vivo, iv, rat plasma, 30-min iv infusion of Kang-Ai injection 6 mL/kg, read-out: AUC0–12h): 0.0912 ± 0.00477 µM·h; fraction unbound at 24 h ([4]; rat plasma, equilibrium dialysis 24 h, 37 °C, 2 μmol/L alkaloids, 4 μmol/L saponins, read-out: fu-plasma (unbound fraction)): 0.463 ± 0.0503; Extracted samples at 8 °C for 18 h, RE ([6]; nominal conc. 400 nM): 12.32%; Short-term stability at room temperature for 6 h, Mean±SD ([6]; nominal conc. 400 nM): 376.44 ± 26.61 nM; Short-term stability at room temperature for 6 h, RE ([6]; nominal conc. 400 nM): -12.62%; Three freeze-thaw cycles (-80 °C ↔ 23 °C), Mean±SD ([6]; nominal conc. 400 nM): 370.01 ± 38.18 nM; Three freeze-thaw cycles (-80 °C ↔ 23 °C), RE ([6]; nominal conc. 400 nM): -13.77%; CL renal ([7]; in vivo): 0.316 mL/min; fe-U,0–12h (fraction of dose excreted into urine) [7]: 9.59 ± 1.68%
